Holding throughout (format): cell-based, human
The subject of assay [1] is MDA-MB-231. The experiment in a line: MTT anti-proliferative test, MDA-MB-231. Conditions: for SI (selective index) MDA-MB-231: IC50 MCF-10A/IC50 MDA-MB-231. From the text: The MCF-10A cell line (normal human mammary epithelial cells) served as a reference control.
All breast cell lines (MCF-10A, MCF-7, and MDA-MB-231) were purchased from the American Type Culture Collection—ATCC (Manassas, VA, USA). The MCF-7 and MDA-MB-231 were cultivated in Dulbecco’s modified Eagle’s medium (DMEM) and supplemented with 10% fetal bovine serum (FBS), 1% sodium pyruvate, and 1% MEM non-essential amino acids (NEAA) without antibiotics. The non-tumorigenic breast cell line (MCF-10A) was cultivated in DMEM medium (Sigma-Aldrich, St. Louis, MO, USA) and supplemented with 10% FBS, 1% sodium pyruvate, 1% non-essential amino acids (NEAA), 20 ng/mL human epithelia growth factor (hEGF), 10 μg/mL insulin, and 0.5 μg/mL hydrocortisone without antibiotics. All cell lines were maintained in a humidified atmosphere, with 5% CO2 at 37 °C.
Using the standard MTT-dye reduction assay described by Mosmann, the anti-proliferative activity was tested. The method is based on the metabolism of the tetrazolium salt MTT to insoluble formazan. The formazan absorption was registered using a microplate reader at λ = 540 nm. The measured absorption is an indicator of cell viability and metabolic activity. Anti-proliferative activities were expressed as IC50 values (concentrations required for 50% inhibition of cell growth), calculated using non-linear regression analysis (GraphPad Software, San Diego, CA, USA).
On the technique in general: Tetrazolium assays rely on reduction of a dye to a coloured formazan, in cell work by metabolically active cells.

For assay [2], the system named is MCF-7. The experiment in a line: Cell cycle analysis by propidium iodide staining, MCF-7. Conditions: for cell cycle arrest phase, MCF-7: ER positive cell line; for change of %G1 vs control, MCF-7 / change of %G2 vs control, MCF-7 / change of %S vs control, MCF-7: control = 100%, 24 h; for %G1, MCF-7 / %G2, MCF-7 / %S, MCF-7: treated at IC50, 24 h. The method, then: (§1) Our study continued with the examination of the effect of the newly synthesized compounds’ IC50 values on cell cycle progression. The cell aliquots were collected, and FACS analyses were used to detect the effects of cell treatments with the selected compounds (2, 4, and 5). A propidium iodide staining assay was performed.
(§2) The changes in the cell cycle distribution in % (G1, S, and G2 phases), based on the graphical figures A–C, were calculated and are given in Table 4.
(§3) The cells were trypsinized, suspended in medium + 10% FCS, and centrifuged (1000 rpm, 5 min); then, the pellet was suspended in PBS (1 mL) and fixed with EtOH. The cells were suspended in 2.5 mL pre-cold 70% EtOH and incubated on ice for 15 min. The staining procedure was as follows: the pellet was suspended in a 500 μL PI-solution in PBS and 0.1 mg/mL RNase A, and 0.05% Triton X-100 was added. After incubation for 10 min at 37 °C, the cells were transferred to the flow cytometer and cell fluorescence was measured. The samples were measured by flow cytometry (LSR II, BD Biosciences, Franklin Lakes, NJ, USA) and analyzed using BD FACS DIVA software v. 6.1.3 (BD Biosciences).

For assay [3], the system named is MDA-MB-231. The experiment in a line: Cell cycle analysis by propidium iodide staining, MDA-MB-231. The note with it: for cell cycle arrest phase, MDA-MB-231: ER negative cell line; for change of %G1 vs control, MDA-MB-231 / change of %G2 vs control, MDA-MB-231 / change of %S vs control, MDA-MB-231: control = 100%, 24 h; for %G1, MDA-MB-231 / %G2, MDA-MB-231 / %S, MDA-MB-231: treated at IC50, 24 h. The method, then:
as §1, §2, §3

The test system of a further assay is MCF-10A. The experiment in a line: ζ-potential measurement, MCF-10A. The note with it: PBS pH 7.4, 37 °C; more negative after treatment. How it is done: (§4) First, the ζ-potential of each cell line was measured, and all obtained values were negative (Figure 6A). The Student t-test statistical analysis which was applied distinguished the ζ-potentials of the three studied cell lines with p < 0.05, and the values followed the order of MCF-7 > MDA-MB-231 > MCF-10A. […] represents the relative percentage change of the ζ-potential induced by the studied compounds for the different cell lines. Compound 2 was able to decrease the ζ-potential of the cells with the following ranking: MCF-7 (42%) > MCF-10A (24%) > MDA-MB-231 (16%). For compound 4, the ranking was as follows: MCF-10A (50%) > MDA-MB-231 (46%) > MCF-7 (3%). For compound 5, this was MCF-10A (36%) > MCF-7 (22%) > […].
(§5) The zeta (ζ ξ) potential is the electrostatic potential at the shear plane of a cell, and is related to both its surface charge and the local environment. The ζ-potential of the intact cells and the treated ones was recorded in a cell suspension (0.5 × 10^6 cells/mL) in PBS, using the electrophoretic light-scattering technique on a Zetasizer Nano ZS analyzer (Malvern Instruments, Great Britain). Laser Doppler electrophoresis and velocimetry of cells were used to determine the ζ-potential by measuring the speeds of the cells in PBS upon the application of an electric field. The ζ-potential was calculated based on the Helmholtz–Smoluchowski equation. The measurements were performed in a U-shaped cell with gold-plated electrodes at 37 °C.
(§6) Figure 6 ζ-potential of the investigated cell lines, MCF-10A, MCF-7, and MDA-MB-231 (A). Alterations in the ζ-potential after treatment with compounds 2 (pink), 4 (blue), and 5 (green) (B). All zeta potential values were measured in PBS buffer (137 mM NaCl, 2.7 mM KCl, 8 mM Na2HPO4, and 2 mM KH2PO4; pH 7.4) at 37 °C. Two independent experiments were carried out for each cell line, and each sample was measured 6 times. (*; ***) denote p < 0.05 and p < 0.001 as follows. […]

For assay [4], the system named is MCF-7. The experiment in a line: ζ-potential measurement, MCF-7. Conditions: PBS pH 7.4, 37 °C; more negative after treatment. The method, then:
as §4, §5, §6

The subject of assay [5] is MDA-MB-231. The experiment in a line: ζ-potential measurement, MDA-MB-231. The note with it: PBS pH 7.4, 37 °C; more negative after treatment. The method, then: as §4, §5, §6
The mark [6] stands for this setting: Homo sapiens, MDA-MB-231, MTT, read-out: IC50 MDA-MB-231 (converted).
The mark [7] stands for this setting: Homo sapiens, MDA-MB-231, MTT, read-out: IC50 of Mean ± SD, Anti-Proliferative Activity MDA-MB-231.
[8] abbreviates: MTT, read-out: IC50 MDA-MB-231 (converted).
Setting [9] is: Homo sapiens, MDA-MB-231, MTT, read-out: IC50 MDA-MB-231 (text).

Three compounds from paper PMC10489817, “2-Alkyl-Substituted-4-Amino-Thieno[2,3-d]Pyrimidines: Anti-Proliferative Properties to In Vitro Breast Cancer Models” (Molecules, 2023) can be followed below.

Values joined by “and” are separate entries in the source; they are usually repeats but may differ in a detail not shown here. Equal entries are not always repeated. Where two headings read alike, the source gives them in different places.

Usually IC50 stands for the concentration that inhibits the measured activity by half. With `CCOC(=O)c1sc2nc(C)nc(N)c2c1C` [Compound 5, Ethyl 4-Amino-2,5-Dimethyl-Thieno[2,3-d]Pyrimidine-6-Carboxylate], the IC50 in the assay with MDA-MB-231 [1] (setting [6]) is 1500 µM. Moreover, the IC50 in the assay on MDA-MB-231 [1] (setting [7]) came out at 365 ± 26.6 µg/mL. Further, in the assay on MDA-MB-231 [1], the “SI (selective index) MDA-MB-231” value is recorded as 1.7. In addition, in the assay on MDA-MB-231 [1] (setting [8]), the half-maximal inhibitory concentration (IC50) is 1450 µM. Besides, in the assay on MCF-7 [2], the “cell cycle arrest phase, MCF-7” value is given as “arrest was detected in the G1 phase”; the “change of %G1 vs control, MCF-7” value is “+20.54%”; the “change of %G2 vs control, MCF-7” value is −15.7%; the “change of %S vs control, MCF-7” value is given as −10.2%. Moreover, in the assay on MCF-7 [2], the “%G1, MCF-7” value turned out to be 48.7%; the “%G2, MCF-7” value is given as 8.40%; the “%S, MCF-7” value is listed as 38.7%. In the assay with MDA-MB-231 [3], the “cell cycle arrest phase, MDA-MB-231” value is given as “cell cycle arrest in the G2 stage”; the “change of %G1 vs control, MDA-MB-231” value is given as −20%; the “change of %G2 vs control, MDA-MB-231” value is listed as “+45.9%”; the “change of %S vs control, MDA-MB-231” value is “+15.45%”. In the assay on MDA-MB-231 [3], the “%G1, MDA-MB-231” value is reported as 33.1%; the “%G2, MDA-MB-231” value is on record as 6.439%; the “%S, MDA-MB-231” value was 53.8%. In the assay with MCF-10A, the “Δζ/ζ relative change of ζ-potential, MCF-10A” value (“Δζ/ζ relative change … MCF-10A” below) is 35.94% and 36%. Further, the “Δζ/ζ relative change of ζ-potential, MCF-7” value (from here on “Δζ/ζ relative change … MCF-7”) with MCF-7 [4] is 22.27% and 22%. In addition, the “Δζ/ζ relative change of ζ-potential, MDA-MB-231” value in the assay on MDA-MB-231 [5] was 23.31% and 23%.
As to `CCOC(=O)c1sc2nc(CC)nc(N)c2c1C` [Compound 4, Ethyl 4-Amino-2-Ethyl-5-Methylthieno[2,3-d]Pyrimidine-6-Carboxylate], the IC50 in the assay on MDA-MB-231 [1] (setting [6]) is 200 µM. The IC50 in the assay with MDA-MB-231 [1] (setting [9]) stood at 62.9 µg/mL. The IC50 in the assay with MDA-MB-231 [1] (setting [7]) came to 62.9 ± 5.7 µg/mL. For the same compound, the “SI (selective index) MDA-MB-231” value in the assay with MDA-MB-231 [1] stood at 5.8. The IC50 in the assay on MDA-MB-231 [1] (setting [8]) was 240 µM. In the assay on MCF-7 [2], the “cell cycle arrest phase, MCF-7” value is listed as “arrest was detected in the G1 phase”; the “change of %G1 vs control, MCF-7” value was “+20%”; the “change of %G2 vs control, MCF-7” value is on record as −22.55%; the “change of %S vs control, MCF-7” value was −8.35%. In the assay on MCF-7 [2], the “%G1, MCF-7” value worked out at 48.5%; the “%G2, MCF-7” value worked out at 7.769%; the “%S, MCF-7” value was found to be 39.5%. In the assay with MDA-MB-231 [3], the “cell cycle arrest phase, MDA-MB-231” value is given as “cell cycle arrest in the G2 stage”; the “change of %G1 vs control, MDA-MB-231” value was −29.46%; the “change of %G2 vs control, MDA-MB-231” value is on record as “+44.9%”; the “change of %S vs control, MDA-MB-231” value is “+14.4%”. For the same compound, in the assay on MDA-MB-231 [3], the “%G1, MDA-MB-231” value came to 29.2%; the “%G2, MDA-MB-231” value is on record as 6.35%; the “%S, MDA-MB-231” value worked out at 53.3%. Besides, in the assay on MCF-10A, the “Δζ/ζ relative change … MCF-10A” value was 50.48% and 50%. Further, the “Δζ/ζ relative change … MCF-7” value in the assay with MCF-7 [4] was 3.35% and 3%. Also, the “Δζ/ζ relative change of ζ-potential, MDA-MB-231” value in the assay on MDA-MB-231 [5] is 45.51% and 46%.
For the compound `CCOC(=O)Cc1nc(N)c2c(C)c(C(=O)OCC)sc2n1` [Compound 2, Ethyl 4-Amino-2-(2-Ethoxy-2-Oxoethyl)-5-Methylthieno[2,3-d]Pyrimidine-6-Carboxylate], in the assay with MDA-MB-231 [1] (setting [6]), the IC50 is 170 µM. Also, the IC50 with MDA-MB-231 [1] (setting [9]) turned out to be 52.6 µg/mL. For the same compound, the IC50 in the assay with MDA-MB-231 [1] (setting [7]) was 52.6 ± 3.2 µg/mL. The “SI (selective index) MDA-MB-231” value in the assay on MDA-MB-231 [1] worked out at 9.6. For the same compound, the IC50 in the assay with MDA-MB-231 [1] (setting [8]) was 160 µM. Further, in the assay with MCF-7 [2], the “cell cycle arrest phase, MCF-7” value is listed as “arrest was detected in the G1 phase”; the “change of %G1 vs control, MCF-7” value was “+11.1%”; the “change of %G2 vs control, MCF-7” value was “+7.75%”; the “change of %S vs control, MCF-7” value was −7.65%. Further, in the assay with MCF-7 [2], the “%G1, MCF-7” value was 44.9%; the “%G2, MCF-7” value was 10.7%; the “%S, MCF-7” value amounted to 39.8%. In addition, in the assay on MDA-MB-231 [3], the “cell cycle arrest phase, MDA-MB-231” value is reported as “cell cycle arrest in the G2 stage”; the “change of %G1 vs control, MDA-MB-231” value is reported as −17.63%; the “change of %G2 vs control, MDA-MB-231” value is “+53.65%”; the “change of %S vs control, MDA-MB-231” value is recorded as “+15%”. In addition, in the assay on MDA-MB-231 [3], the “%G1, MDA-MB-231” value turned out to be 34.1%; the “%G2, MDA-MB-231” value is on record as 6.73%; the “%S, MDA-MB-231” value is on record as 53.6%. Also, the “Δζ/ζ relative change … MCF-10A” value with MCF-10A is 24.27% and 24%. In the assay with MCF-7 [4], the “Δζ/ζ relative change … MCF-7” value is 42.14% and 42%. Besides, the “Δζ/ζ relative change of ζ-potential, MDA-MB-231” value with MDA-MB-231 [5] was 16.04% and 16%.
